Target: T1, Mtm1p (YGR257cp) (Saccharomyces cerevisiae, UniProt P53320)
T1 sequence (P53320 1-366): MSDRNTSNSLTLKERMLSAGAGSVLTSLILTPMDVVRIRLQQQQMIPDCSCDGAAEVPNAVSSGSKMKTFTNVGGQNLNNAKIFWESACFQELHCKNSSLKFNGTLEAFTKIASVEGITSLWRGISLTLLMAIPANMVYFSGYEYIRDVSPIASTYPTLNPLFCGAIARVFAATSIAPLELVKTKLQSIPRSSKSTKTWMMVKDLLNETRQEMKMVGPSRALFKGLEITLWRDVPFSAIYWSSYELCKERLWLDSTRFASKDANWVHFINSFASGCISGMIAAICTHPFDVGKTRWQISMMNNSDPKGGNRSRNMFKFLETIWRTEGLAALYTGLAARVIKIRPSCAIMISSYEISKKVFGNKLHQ
Assay: stoichiometric tryptophan fluorescence quenching titration
Type: binding

How did the Kd turn out when `Cc1ncc(COP(=O)(O)O)c(C=O)c1O` [PLP, pyridoxal 5′-phosphate] was run?
Its Kd is 1900 ± 300 nM.

Reference: paper PMC4723269 (Archives of biochemistry and biophysics, 2015)
